According to patent US20240174690A1, “ANNULATED 2-AMINO-3-CYANO THIOPHENES AND DERIVATIVES FOR THE TREATMENT OF CANCER” (BOEHRINGER INGELHEIM INTERNATIONAL GMBH, priority 2021, published 2024):
Values after ≈ are worked out from the molar mass of the structure shown. Read-outs that look alike come from different tables or passages of the source.

Experiments:
[1] = Solubility measurement (DMSO solution method), McIlvaine buffer pH 4.5 or 6.8; format: physicochemical; conditions: aqueous buffer, kinetic from dmso stock, DMSO stock diluted to 250 μM, 24 h shaking at ambient temperature
Description: The DMSO solution is diluted with an aqueous medium (Mcllvaine buffer with pH=4.5 or 6.8) to a final concentration of 250 μM. After 24 h of shaking at ambient temperature a potentially formed precipitate is removed by filtration. The concentration of the test compound in the filtrate is determined by LC-UV methods by calibrating the signal to the signal of a reference solution with complete dissolution of the test compound in acetonitrile/water (1:1) with known concentration.

[2] = tested on: KRAS G12C-dependent Ba/F3 cells; assay: Ba/F3 proliferation assay, KRAS G12C; format: cell-based; conditions: Mus musculus, BaF3, 72 h, AlamarBlue
Description: (§1) Plasmids containing KRASG12 mutants (i.e. […], G12C, G12V) are obtained from GeneScript. To generate KRASG12-dependent Ba/F3 models, Ba/F3 cells are transduced with retroviruses containing vectors that harbor KRASG12 isoforms. Platinum-E cells (Cell Biolabs) are used for retrovirus packaging. Retrovirus is added to Ba/F3 cells. To ensure infection, 4 μg/mL polybrene is added and cells are spinfected. […] Cells with an infection efficiency of 10% to 20% are further cultivated and puromycin selection with 1 μg/mL is initiated. As a control, parental Ba/F3 cells are used to show selection status. Selection is considered successful when parental Ba/F3 cells cultures died. To evaluate the transforming potential of KRASG12 mutations, the growth medium is no longer supplemented with IL-3. Ba/F3 cells harboring the empty vector are used as a control. Approximately ten days before conducting the experiments, puromycin is left out.
(§2) Compounds are added using an Access Labcyte Workstation with a Labcyte Echo 550 or 555 accoustic dispenser. All treatments are performed in technical duplicates. […] AlamarBlue™ (ThermoFisher), a viability stain, is added and fluorescence measured in the PerkinElmer Envision HTS Multilabel Reader. The raw data are imported into and analyzed with the Boehringer Ingelheim proprietary software MegaLab (curve fitting based on the program PRISM, GraphPad Inc.).

[3] = biological target: KRAS (G12D)::SOS1 (Homo sapiens (Human), UniProt P01116, G12D); assay: KRAS::SOS1 AlphaScreen binding assay, KRAS G12D
From the text: (§3) This assay can be used to examine the potency with which compounds according to the invention binding to (mutated) KRAS inhibit the protein-protein interaction between SOS1 and (mutated) KRAS e.g., KRAS WT, KRAS G12C, KRAS G12D, KRAS G12V, KRAS G13D. […] Low IC50 values in this assay setting are indicative of strong inhibition of protein-protein interaction between SOS1 and KRAS:
(§4) These assays measure the inhibitory effect of compounds on KRAS mutant protein-protein interactions using the Alpha Screen technology by Perkin Elmer.
(§5) The following (mutant) enzyme forms of KRAS and interacting proteins are used in these assays at the given concentrations: • KRAS (G12D) 1-169, N-terminal 6His-tag, C-terminal avi-tag (Xtal BioStructures, Inc.); final assay concentration 10 nM and SOS1 564-1049, N-terminal 229 GST-tag, TEV cleavage site (Viva Biotech Ltd); final assay concentration 5 nM; • KRAS (G12C) 1-169, N-terminal 6His-tag for purification, cleaved off, C-terminal avi-tag, biotinylated, mutations: C51S, C80L, C118S (in house); final assay concentration 7.5 nM and SOS1 564-1049, N-terminal 229 GST-tag, TEV cleavage site (Viva Biotech Ltd); final assay concentration 5 nM; • KRAS (G12V) 1-169, N-terminal 6His-tag for purification, cleaved off, C-terminal avi-tag, biotinylated, TEV cleavage site, mutation: C118S, GDP loaded (in house); final assay concentration 10 nM and SOS1 564-1049, N-terminal 229 GST-tag, TEV cleavage site (Viva Biotech Ltd); final assay concentration 10 nM; • KRAS (G13D) 1-169, N-terminal 6His-tag for purification, cleaved off, C-terminal avi-tag, biotinylated, TEV cleavage site, mutation: C118S, GDP loaded (in house); final assay concentration 10 nM and SOS1 564-1049, N-terminal 229 GST-tag, TEV cleavage site (Viva Biotech Ltd); final assay concentration 10 nM; • KRAS (WT) 1-169, N-terminal 6His-tag for purification, cleaved off, C-terminal avi-tag, biotinylated, TEV cleavage site, mutation: C118S, GDP loaded (in house); final assay concentration 10 nM and SOS1 564-1049, N-terminal 229 GST-tag, TEV cleavage site (Viva Biotech Ltd); final assay concentration 10 nM.
(§6) Test compounds dissolved in DMSO are dispensed onto assay plates (Proxiplate 384 PLUS, white, PerkinElmer; 6008289) using an Access Labcyte Workstation with the Labcyte Echo 55×. For the chosen highest assay concentration of 100 μM, 150 nL of compound solution are transferred from a 10 mM DMSO compound stock solution. A series of eleven fivefold dilutions per compound are transferred to the assay plate, compound dilutions are tested in duplicates. DMSO are added as backfill to a total volume of 150 nL.
(§7) The assays run on a fully automated robotic system in a darkened room below 100 Lux. To 150 nl of compound dilution 10 μl of a mix including KRAS mutant protein, SOS1 (final assay concentrations see above) and GDP nucleotide (Sigma G7127; final assay concentration 10 μM) in assay buffer (1×PBS, 0.1% BSA, 0.05% Tween 20) are added into columns 1-24.
(§8) After 30 minutes incubation time 5 μl of Alpha Screen bead mix in assay buffer are added into columns 1-23. Bead mix consists of AlphaLISA Glutathione Acceptor Beads (PerkinElmer, Cat No AL109) and AlphaScreen Streptavidin Donor Beads (PerkinElmer Cat No 6760002) in assay buffer at a final assay concentration of 10 μg/ml each.
(§9) Plates are kept at room temperature in a darkened incubator. After an additional 60 minutes incubation time the signal is measured in a PerkinElmer Envision HTS Multilabel Reader using the AlphaScreen specs from PerkinElmer.
(§10) Each plate contains up to 16 wells of a negative control depending on the dilution procedure (platewise or serial) (DMSO instead of test compound; with KRAS mutant::SOS1 GDP mix and bead mix; column 23) and 16 wells of a positive control (DMSO instead of test compound; with KRAS mutant::SOS1 GDP mix w/o bead mix; column 24).
(§11) As internal control known inhibitors of KRAS mutant::SOS1 interaction can be measured on each compound plate. […]

[4] = Metabolic (microsomal) stability assay, human liver microsomes (HLM); format: in vitro ADME; conditions: predicted clearance as percent of liver blood flow, 1 μM
Description: The metabolic degradation of the test compound is assayed at 37° C. with pooled liver microsomes (mouse (MLM), rat (RLM) or human (HLM)). The final incubation volume of 48 μL pertime point contains TRIS buffer (pH 7.5; 0.1 M), magnesium chloride (6.5 mM), microsomal protein (0.5 mg/mL for mouse/rat, 1 mg/mL for human specimens) and the test compound at a final concentration of 1 μM. Following a short preincubation period at 37° C., the reactions are initiated by addition of 12 μL beta-nicotinamide adenine dinucleotide phosphate, reduced form (NADPH, 10 mM) and terminated by transferring an aliquot into solvent after different time points (0, 5, 15, 30, 60 min). Additionally, the NADPH-independent degradation is monitored in incubations without NADPH, terminated at the last time point by addition of acetonitrile. The quenched incubations are pelleted by centrifugation (4,000 rpm, 15 min). An aliquot of the supernatant is assayed by LC-MS/MS to quantify the concentration of parent compound in the individual samples.
In vitro intrinsic clearance (CLint, in vitro) is calculated from the time course of the disappearance of the test drug during the microsomal incubation. Each plot is fitted to the first-order elimination rate constant as C(t)═C0*exp(−ke*t), where C(t) and C0 are the concentration of unchanged test drug at incubation time t and that at preincubation and ke is the disappearance rate constant of the unchanged drug. Subsequently, CLint in vitro (μL min^−1·amount protein) values are converted to predicted CLint,in vivo (mL min^−1 kg^−1) from incubation parameters according to the equation CLint, in vivo=CLint, in vitro×(incubation volume (ml)/amount protein (mg))×(amount protein (mg)/g liver tissue)×(liver weight/body wt.).
For better across species comparison the predicted clearance is expressed as percent of the liver blood flow [% QH] (mL min^−1·kg^−1) in the individual species. In general, high stability (corresponding to low % QH) of the compounds across species is desired.

[5] = biological target: KRAS (G12C)::SOS1 (Homo sapiens (Human), UniProt P01116, C118S/C51S/C80L/G12C); assay: KRAS::SOS1 AlphaScreen binding assay, KRAS G12C
From the text: as §3, §4, §5, §6, §7, §8, §9, §10, §11

[6] = tested on: KRAS G12V-dependent Ba/F3 cells; assay: Ba/F3 proliferation assay, KRAS G12V; format: cell-based; conditions: Mus musculus, BaF3, 72 h, AlamarBlue;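 further: proliferation IC50 in KRAS G12V-dependent Ba/F3 cells read by AlamarBlue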
Description: as §1, §2

[7] = tested on: KRAS G12D-dependent Ba/F3 cells; assay: Ba/F3 proliferation assay, KRAS G12D; format: cell-based; conditions: Mus musculus, BaF3, 72 h, AlamarBlue
Description: as §1, §2

[8] = Plasma protein binding assay (PPB), equilibrium dialysis, 10% FCS in PBS; format: in vitro ADME; conditions: bovine, read-out: PPB 10% FCS (% fu)
Description: Binding of test compounds to plasma was determined using equilibrium dialysis (ED) and quantitative mass spectrometry interfaced with liquid chromatography (LC-MS). In brief, ED was performed with dialysis devices consisting of two chambers separated by a semipermeable membrane with a molecular weight cut-off of 5-10 kg/mol. One chamber was filled with 10% FCS in PBS containing 1-10 μmol/L test compound and the other chamber was filled with phosphate-buffer saline (PBS) with or without dextran. The dialysis chamber was incubated for 3-5 hours at 37° C. After incubation, protein was precipitated from aliquots of each chamber and the concentration of test compound in the supernatant of the plasma-containing compartment (Cserum) and of the buffer-containing compartment (Cbuffer) was determined by LC-MS. The fraction of unbound test compound (not bound to plasma) (fu) was calculated according to the following equation: […]

[9] = tested on: NCI-H358 cells; assay: NCI-H358 CTG proliferation assay (120 h) (NSCLC, G12C); format: cell-based, human; conditions: Homo sapiens, assay 2, CTG, read-out: H358 (assay 2) IC50
Description: NCI-H358 CTG Proliferation Assay (120 h) (NSCLC, G12C)
NCI-H358 cells (ATCC No. CRL-5807) are dispensed into white bottom opaque 96 well plates (Perkin Elmer cat no. 5680) at a density of 2000 cells per well in 100 μL RPMI-1640 ATCC-Formulation (Gibco #A10491)+10% FCS (fetal calf serum) (assay 1) or into black 384-well plates, flat and clear bottom (Greiner, PNr. 781091) at a density of 200 cells per well in 60 μl RPMI-1640 ATCC-Formulation (Gibco #A10491)+10% FCS (fetal calf serum) (assay 2). […] Compounds (10 mM stock in DMSO) are added at logarithmic dose series using the HP Digital Dispenser D300 (Tecan) (assay 1) or the ECHO acoustic liquid handler system (Beckman Coulter) (assay 2), normalizing for added DMSO and including DMSO controls. For the TO time point measurement, untreated cells are analyzed at the time of compound addition. Plates are incubated for 120 h, and cell viability is measured using CellTiter-Glo luminescent cell viability reagent (Promega product code G7570). Viability (stated as percent of control) is defined as relative luminescence units RLU of each well divided by the RLU of cells in DMSO controls. IC50 values are determined from viability measurements by non-linear regression using a four parameter model.

Sequence of KRAS (G12D)::SOS1 (P01116 other isoform, or with tags, fused parts or gaps G12D): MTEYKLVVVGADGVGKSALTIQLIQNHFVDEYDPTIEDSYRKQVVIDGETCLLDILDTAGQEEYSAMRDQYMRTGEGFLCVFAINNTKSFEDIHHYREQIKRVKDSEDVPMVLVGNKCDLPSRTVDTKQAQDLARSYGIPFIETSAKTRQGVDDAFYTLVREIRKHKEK
Sequence of KRAS (G12C)::SOS1 (P01116 other isoform, or with tags, fused parts or gaps G12C/C51S/C80L/C118S): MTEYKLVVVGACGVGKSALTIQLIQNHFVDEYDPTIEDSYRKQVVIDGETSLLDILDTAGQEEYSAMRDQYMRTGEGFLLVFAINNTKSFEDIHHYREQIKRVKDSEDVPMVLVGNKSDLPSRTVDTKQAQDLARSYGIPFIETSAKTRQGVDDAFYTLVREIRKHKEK

Row | solubility at 24 h ([1]; McIlvaine buffer pH 4.5, read-out: solubility pH 4.5) [µg/mL] | solubility at 24 h ([1]; McIlvaine buffer pH 6.8, read-out: solubility pH 6.8) [µg/mL] | IC50 [2] [nM] | IC50 [3] [nM] | HLM QH [4] [%] | IC50 [5] [nM] | IC50 [6] [nM] | IC50 [7] [nM] | fraction unbound [8] | IC50 [9] [nM] | Compound
1 | 3 (≈ 6.13 µM) | < 1 | 289 | 21 | 32 | 32 | – | – | – | – | Cc1cc(-c2onc3c2CCC[C@@]32CCCc3sc(N)c(C#N)c32)nc(N2CCCNC[C@@H]2C)n1 [I-35]
2 | – | – | 403 | – | <24 | – | 401 | 72 | 0.48 | 1720 | C[C@H](Oc1cc(N2CCN3CCC[C@]3(C)C2)nc(-c2noc3c2CCC[C@@]32CCCc3sc(N)c(C#N)c32)n1)[C@@H]1CCCN1C [II-52]
3 | – | – | 830 | 36 | 51 | 888 | – | – | – | – | C[C@H]1CN(C)CCCN1c1nc(-c2noc3c2CCC[C@@]32CCCc3sc(N)c(C#N)c32)cc(N2CCN(C)C3(CC3)C2)n1 [II-172]
4 | – | – | 15 | – | 59 | – | 8 | 54 | 0.42 | 134 | C[C@H](Oc1cc(-n2ccnn2)nc(-c2noc3c2CCC[C@@]32CCCc3sc(N)c(C#N)c32)n1)[C@@H]1CCCN1C [II-108]
